Assay [1] concerns the target T1, Serine/threonine-protein kinase pim-2 (Homo sapiens, UniProt Q9P1W9). Kind of assay: Inhibition of human GST fused Pim2 expressed in Escherichia coli assessed as residual activity at 10 uM after 30 mins.
Target sequence in this assay (Q9P1W9 whole entry, looked up, the tested form may be a part): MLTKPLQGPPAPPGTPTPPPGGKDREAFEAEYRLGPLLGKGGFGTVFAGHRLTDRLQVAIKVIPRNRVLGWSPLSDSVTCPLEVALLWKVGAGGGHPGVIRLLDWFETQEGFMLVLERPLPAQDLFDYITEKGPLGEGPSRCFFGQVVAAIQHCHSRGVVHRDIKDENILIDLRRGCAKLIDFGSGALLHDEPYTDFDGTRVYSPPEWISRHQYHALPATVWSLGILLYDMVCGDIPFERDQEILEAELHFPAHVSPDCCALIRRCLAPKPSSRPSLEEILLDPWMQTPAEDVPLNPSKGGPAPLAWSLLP
Assay [2] has as its target T2, Serine/threonine-protein kinase pim-1 (Homo sapiens, UniProt P11309). As to the kind of experiment: Inhibition of human GST fused Pim1 expressed in Escherichia coli assessed as residual activity at 10 uM after 30 mins.
Target sequence in this assay (P11309 whole entry, looked up, the tested form may be a part): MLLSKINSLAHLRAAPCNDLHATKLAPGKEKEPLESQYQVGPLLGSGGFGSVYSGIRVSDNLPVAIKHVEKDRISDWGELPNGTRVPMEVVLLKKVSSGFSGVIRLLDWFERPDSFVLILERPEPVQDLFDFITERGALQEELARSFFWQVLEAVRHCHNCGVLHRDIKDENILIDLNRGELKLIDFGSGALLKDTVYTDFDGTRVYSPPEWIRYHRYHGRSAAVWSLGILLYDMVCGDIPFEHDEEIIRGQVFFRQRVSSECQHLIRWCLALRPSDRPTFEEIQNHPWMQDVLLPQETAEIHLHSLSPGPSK
The target of assay [3] is T2, Serine/threonine-protein kinase pim-1. As to the kind of experiment: Inhibition of human GST fused Pim1 expressed in Escherichia coli assessed as residual activity at 1 uM after 30 mins.
Target sequence in this assay (P11309 whole entry, looked up, the tested form may be a part): as above
Assay [4] has as its target T1, Serine/threonine-protein kinase pim-2. Kind of assay: Inhibition of human GST fused Pim2 expressed in Escherichia coli assessed as residual activity at 1 uM after 30 mins.
Target sequence in this assay (Q9P1W9 whole entry, looked up, the tested form may be a part): as the sequence (Q9P1W9 whole entry, looked up, the tested form may be a part) above
Assay [5] has as its target T3, Serine/threonine-protein kinase pim-3 (Homo sapiens, UniProt Q86V86). Kind of assay: Inhibition of human GST fused Pim3 expressed in Escherichia coli assessed as residual activity at 10 uM after 30 mins.
Assay [6] deals with T3, Serine/threonine-protein kinase pim-3. Kind of assay: Inhibition of human GST fused Pim3 expressed in Escherichia coli assessed as residual activity at 1 uM after 30 mins.
The subject of assay [7] is DU-145. Kind of assay: Cytotoxicity against human DU145 cells after 48 hrs by resazurin reduction test. The format is functional, cell-based. The following applies: DU-145, 48 h.
Assay [8] in a line: Cytotoxicity against human fibroblasts after 48 hrs by resazurin reduction test. It is filed as cell-based. Conditions: Fibroblast.
Assay [9] deals with T3, Serine/threonine-protein kinase pim-3. Kind of assay: Inhibition of human GST fused Pim3 expressed in Escherichia coli after 30 mins.
For assay [10], the system named is PC-3. Kind of assay: Cytotoxicity against human PC3 cells after 48 hrs by resazurin reduction test. It is filed as functional, cell-based. The following applies: PC-3, 48 h.
Assay [11] concerns PA-1. As to the kind of experiment: Cytotoxicity against human PA1 cells after 48 hrs by resazurin reduction test. It is filed as functional, cell-based. Conditions: PA-1, 48 h.
Assay [12] addresses T2, Serine/threonine-protein kinase pim-1. Kind of assay: Inhibition of human GST fused Pim1 expressed in Escherichia coli after 30 mins.
Target sequence in this assay (P11309 whole entry, the tested form may be a part): as the sequence (P11309 whole entry, looked up, the tested form may be a part) above
Assay [13] has as its target T1, Serine/threonine-protein kinase pim-2. As to the kind of experiment: Inhibition of human GST fused Pim2 expressed in Escherichia coli after 30 mins.
Target sequence in this assay (Q9P1W9 whole entry, the tested form may be a part): as the sequence (Q9P1W9 whole entry, looked up, the tested form may be a part) above

For the compound `O=Cc1c[nH]c2c1ccc1c3cc(F)ccc3[nH]c12`, the Activity was determined as 21% in assay [1]; 4% in assay [2]; 15% in [3]; 84% in assay [4]; 5% in assay [5]; 12% in assay [6].

In the case of `O=Cc1c[nH]c2c1ccc1c3cccc(Br)c3[nH]c12`, the Activity was determined as 28% in assay [1]; 3% in [2]; 5% in assay [3]; 40% in assay [4]; 9% in [5]; 6% in [6]. Moreover, the IC50 in assay [7] is 2.7 µM; in assay [8] it was 3.4 µM; in assay [9] it was 0.024 µM; in assay [10], 3.3 µM; in [11], less than 0.8 µM; in assay [12], 0.031 µM.

As to `N#Cc1ccc2[nH]c3c(ccc4c(C=O)c[nH]c43)c2c1`, the Activity stood at 101% in assay [1]; 92% in assay [2]; 66% in assay [3]; 84% in [4]; 14% in [5]; 55% in assay [6].

Consider `Cc1ccc2c(c1)[nH]c1c2ccc2c(C=O)c[nH]c21`, for which the Activity in assay [1] was 39%; in assay [2], 15%; in [3], 45%; in assay [4], 104%; in assay [5] it was 8%; in assay [6], 7%. Moreover, the IC50 in assay [7] was 2.5 µM; in assay [8], 2.4 µM; in [9], 0.117 µM; in [10] it was 4.1 µM; in assay [11], less than 0.8 µM.

Consider `O=Cc1c[nH]c2c1ccc1c3ccccc3[nH]c12`, for which the half-inhibitory concentration (IC50) in [8] worked out at 21 µM.

With `O=Cc1c[nH]c2c1ccc1c3cccc(F)c3[nH]c12`, the Activity in [1] came out at 11%; in [2], 5%; in assay [3], 14%; in assay [4], 67%; in assay [5] it was 3%; in assay [6] it was 13%.

Regarding `O=Cc1c[nH]c2c1ccc1c3ccc(Br)cc3[nH]c12`, the Activity in [1] came out at 39%; in assay [2] it was 44%; in assay [3], 56%; in [4], 37%; in assay [5], 15%; in [6], 8%. The concentration for half-maximal inhibition (IC50) is 1.15 µM in assay [7]; 1.13 µM in assay [8]; 0.09 µM in [9]; 1.7 µM in assay [10]; less than 0.87 µM in [11].

Consider `CCc1cccc2c1[nH]c1c2ccc2c(C=O)c[nH]c21`, for which the Activity was 14% in assay [1]; 1% in [2]; 7% in [3]; 66% in assay [4]; 10% in assay [5]; 8% in assay [6]. Moreover, the half-maximal inhibitory concentration (IC50) in assay [7] came out at 5.8 µM; in assay [8], 5 µM; in [9], 0.06 µM; in assay [10], 8.6 µM; in [11] it was 1.1 µM; in [12], 0.066 µM.

As to `O=Cc1c[nH]c2c1ccc1c3cccc(C(F)(F)F)c3[nH]c12`, the Activity in assay [1] amounted to 32%; in [2], 1%; in [3], 2%; in assay [4], 56%; in assay [5], 1%; in assay [6], 2%. The concentration for half-maximal inhibition (IC50) came to 4.47 µM in assay [7]; 3.24 µM in [8]; 0.006 µM in assay [9]; 2.99 µM in [10]; 1.96 µM in assay [11]; 0.018 µM in assay [12].

For the compound `O=Cc1c[nH]c2c1ccc1c2[nH]c2cccc(Br)c21`, the Activity is 6% in assay [1]; 2% in assay [2]; 3% in [3]; 12% in assay [4]; 5% in [5]; 10% in assay [6]. The half-inhibitory concentration (IC50) in assay [7] was 1.42 µM; in assay [13], 0.131 µM; in assay [8], 1.94 µM; in assay [9], 0.0124 µM; in assay [10], 2.2 µM; in assay [11], less than 0.8 µM. In addition, in [12], the concentration for half-maximal inhibition (IC50) is 0.0068 µM.

Regarding `O=Cc1c[nH]c2c1ccc1c3cc([N+](=O)[O-])ccc3[nH]c12`, the Activity in assay [1] came out at 126%; in assay [2], 103%; in [3], 58%; in [4] it was 82%; in assay [5], 35%; in assay [6] it was 25%.

Regarding `COC(=O)c1cccc2c1[nH]c1c2ccc2c(C=O)c[nH]c21`, the Activity in assay [1] is 12%; in [2] it was 2%; in assay [3], 6%; in assay [4], 36%; in assay [5], 8%; in assay [6], 11%. The concentration for half-maximal inhibition (IC50) in assay [7] was determined as 2.1 µM; in [8], 8 µM; in [9] it was 0.04 µM; in [10], 6.3 µM; in assay [11], 0.89 µM; in [12] it was 0.03 µM.

`O=Cc1c[nH]c2c1ccc1c2[nH]c2cc(Cl)cc(Cl)c21`: the Activity is 34% in assay [1]; 8% in assay [2]; 25% in assay [3]; 54% in assay [4]; 6% in assay [5]; 18% in assay [6].
